Data on one compound can be found in US20030099632A1, “Method for preparing a purified matrix metalloproteinase” (priority 2001, published 2003).

The target of this assay is T1, MMP-13CD (Homo sapiens, UniProt P45452).
T1 construct: expression of MMP-13 catalytic domain (“MMP-13CD”) in E. coli typically produces a pro form of the enzyme; A-S- dipeptide left from the M-A-S- expression leader (mPro-MMP-13CD); removed by autolysis (N, cleaved yes); made in house
Kind of assay: Autolysis of mPro-MMP-13CD / MMP-13CD after addition of a zinc ligand, followed by MALDI-MS. The format is biochemical. The note with it: added to modified pro form A-S-MMP-13CD. How it is done:
A 1 mL aliquot of the solution obtained in Preparation 3 was thawed and purified by addition of 100 μL of hydroxamic acid to give a solution of purified MMP-13CD, and the solution was stored at 4° C.
Matrix-Assisted Laser Desorption/Ionization Mass Spectrometry (“MALDI”): MALDI mass spectra were acquired on a Bruker Daltonics, Inc (Billerika, Mass.) Reflex-III time-of-flight mass spectrometer operating in linear mode. The instrument has a 3.3-meter flight tube and an adjustable accelerating voltage up to 23 kV in Delayed Extraction mode. Radiation from a Laser Science, Inc. (Newton, Mass.) nitrogen laser (337 nm, 3-nanosecond pulse width) was used to desorb ions from the target. All linear delayed-extraction experiments were performed using an operating voltage of 23.0 kV, an extraction grid voltage of 20.0 kV, a focus voltage of 16.8 kV, and a lens voltage of 9.001 kV. Twenty-five to one hundred-fifty laser shots were averaged for each spectrum with a 5-point Savitsky-Golay smooth applied. […]
Samples of protein were then analyzed by MALDI-MS every day for 5 days. […] The flash-frozen material was stored, then thawed and immediately analyzed. […] The relative peak heights were calculated by dividing the a.i. value for MMP-13CD at m/z 18923 by the a.i. value for the particular impurity. […]

Regarding `CC(=O)NO` [acetohydroxamic acid], the “effect on autolysis of MMP-13CD” value is on record as “stabilizes the resulting mature MMP-13CD itself against autolysis”.
